Reference: publication PMC8000592, “Discovery and Optimization of Selective Inhibitors of Meprin α (Part I)” (Pharmaceuticals, 2021)
Read-outs that look alike come from different tables or passages of the source.

Columns and labels:
Assay type in all cases: biochemical
MMP10 = molecular target: T1, MMP10 (Homo sapiens, UniProt P09238); test: MMP assay (Mca-KPLGL-Dpa-AR-NH2 substrate); settings: triplicate, 10-point, 3:1 serial dilution, highest concentration 17.4 µM
T1 construct: purchased R&D Systems 910-MP
T1 sequence (P09238 99-476): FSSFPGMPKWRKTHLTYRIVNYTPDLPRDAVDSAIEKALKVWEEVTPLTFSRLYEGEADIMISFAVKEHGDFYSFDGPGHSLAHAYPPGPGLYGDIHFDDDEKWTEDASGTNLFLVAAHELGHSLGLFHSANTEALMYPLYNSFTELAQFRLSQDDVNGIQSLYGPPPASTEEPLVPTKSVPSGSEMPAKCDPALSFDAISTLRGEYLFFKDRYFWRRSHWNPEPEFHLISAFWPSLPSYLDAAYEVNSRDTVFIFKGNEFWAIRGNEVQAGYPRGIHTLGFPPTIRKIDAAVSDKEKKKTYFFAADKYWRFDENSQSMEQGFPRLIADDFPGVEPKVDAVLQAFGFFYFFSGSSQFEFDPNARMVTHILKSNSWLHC
Experimental: (§1) In addition to meprins, we also tested 64 hits against related metzincins (MMP-2, MMP-3, MMP-8, MMP-9, MMP-10, MMP-14, ADAM10, and ADAM17) to ascertain general nonpromiscuity against zinc-dependent proteases.
(§2) All assays followed the same general protocol. […] After 30 min incubation at RT, the reactions were started by addition of 5 µL of 2x solutions of substrate (R&D Systems cat#: ES010, Mca-KPLGL-Dpa-AR-NH2, 20 µM). Reactions were incubated at RT for 1 h, after which the fluorescence was measured using the Synergy H4 multimode microplate reader (Biotek Instruments) (λexcitation = 324 nm, λemission = 390 nm).

MMP8 = molecular target: T2, MMP8 (Homo sapiens, UniProt P22894); test: MMP assay (Mca-KPLGL-Dpa-AR-NH2 substrate); settings: triplicate, 10-point, 3:1 serial dilution, highest concentration 17.4 µM
T2 construct: purchased R&D Systems 908-MP
T2 sequence (P22894 101-467): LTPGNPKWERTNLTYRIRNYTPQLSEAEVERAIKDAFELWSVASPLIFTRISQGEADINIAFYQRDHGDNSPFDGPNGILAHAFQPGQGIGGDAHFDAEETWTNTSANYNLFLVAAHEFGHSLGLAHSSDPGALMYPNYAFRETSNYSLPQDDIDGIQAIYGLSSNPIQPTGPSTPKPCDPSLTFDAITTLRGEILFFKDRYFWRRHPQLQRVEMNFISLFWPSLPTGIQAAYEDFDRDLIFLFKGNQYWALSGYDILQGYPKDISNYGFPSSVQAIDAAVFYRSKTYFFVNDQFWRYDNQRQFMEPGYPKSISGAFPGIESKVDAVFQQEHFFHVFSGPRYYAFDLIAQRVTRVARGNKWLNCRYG
Experimental: as §1, §2

MMP14 = molecular target: T3, MMP14 (Homo sapiens, UniProt P50281); test: MMP assay (Mca-KPLGL-Dpa-AR-NH2 substrate); settings: triplicate, 10-point, 3:1 serial dilution, highest concentration 17.4 µM
T3 construct: purchased R&D Systems 918-MP
Experimental: as §1, §2

meprin β = molecular target: T4, meprin β (Homo sapiens, UniProt Q16820); test: Meprin β assay, fluorogenic substrate (Mca)-EDEDED-(K-ε-Dnp), 384 and 1536 well plate formats
T4 sequence (Q16820 62-594 limits assumed): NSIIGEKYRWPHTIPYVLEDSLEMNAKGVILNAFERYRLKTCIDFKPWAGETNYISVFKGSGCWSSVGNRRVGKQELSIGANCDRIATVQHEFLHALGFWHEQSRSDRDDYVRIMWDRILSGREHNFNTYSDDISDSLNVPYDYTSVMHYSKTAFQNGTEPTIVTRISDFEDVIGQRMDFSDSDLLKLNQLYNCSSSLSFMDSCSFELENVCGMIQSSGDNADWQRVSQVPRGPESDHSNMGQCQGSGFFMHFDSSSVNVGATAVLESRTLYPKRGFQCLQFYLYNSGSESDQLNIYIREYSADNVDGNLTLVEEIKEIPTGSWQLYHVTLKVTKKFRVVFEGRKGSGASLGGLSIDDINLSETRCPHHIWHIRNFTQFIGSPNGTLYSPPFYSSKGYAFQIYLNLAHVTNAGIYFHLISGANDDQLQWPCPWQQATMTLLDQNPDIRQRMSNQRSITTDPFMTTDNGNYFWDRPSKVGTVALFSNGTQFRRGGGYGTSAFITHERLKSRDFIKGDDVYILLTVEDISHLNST
Excerpt: The meprin α and meprin β assays, which utilize the substrates (Mca)-YVADAPK-(K-ε-Dnp) and (Mca)-EDEDED-(K-ε-Dnp), respectively, have been described previously. To enable an ultra-high-throughput screening (uHTS) campaign, we proceeded to miniaturize both assays to 1536 well plate format (wpf). First, we recapitulated the assays in 1536 well plate using reagents at the same concentrations as in 384 well plate format assays by scaling the volume down by the factor of 2.5.
Both assays followed the same general protocol. A 5 µL measure of 2 × enzyme solution (2.6 and 0.1 nM for meprin α and meprin β, respectively) in assay buffer (50 mM Hepes, 0.01% Brij-35, pH 7.5) was added to solid bottom black 384 low volume plates (Nunc, cat# 264705). Next, 75 nL of test compounds or pharmacological control (actinonin or NFF449) were added to corresponding wells using a 384-pin tool device (V&P Scientific, San Diego, CA, USA). After 30 min incubation at RT, the reactions were started by addition of 5 µL of 2 × solutions of substrates (20 µM, mepin α substrate Mca-YVADAPK-K(Dnp) or meprin β substrate Mca-EDEDED-K(Dnp)). Reactions were incubated at RT for 1 h, after which the fluorescence was measured using the Synergy H4 multimode microplate reader (Biotek Instruments) (λexcitation = 324 nm, λemission = 390 nm).
Both assays followed the same general protocol. A 2 µL portion of 2 × enzyme solution (1.3 and 0.0125 nM for meprin α and meprin β, respectively) in assay buffer (50 mM Hepes, 0.01% Brij-35, pH 7.5) was added to solid bottom black 1536 low volume plates (Corning cat# 7261). Next, 30 nL of test compounds or pharmacological control (actinonin or NFF449) was added to corresponding wells using a 1536 pin tool device (V&P Scientific, San Diego). After 30 min incubation at RT, the reactions were started by addition of 2 µL of 2x solutions of substrates (20 µM, meprin α substrate Mca-YVADAPK-K(Dnp) or meprin β substrate Mca-EDEDED-K(Dnp)). Reactions were incubated at RT for 1 h, after which the fluorescence was measured using the Viewlux multimode microplate reader (Perkin Elmer) (λexcitation = 324 nm, λemission = 390 nm).
The miniaturized 1536-well plate format meprin α and meprin β assays were used to screen a collection of approximately 650,000 compounds (The Scripps Research library, La Jolla, CA, USA) on the automated Kalypsys/GNF platform at The Scripps Research Molecular Screening Center (SRMSC, Jupiter, FL, USA: http://hts.florida.scripps.edu/). Both uHTS campaigns were run separately but in a similar manner. Briefly, the first step was the primary screen of all test compounds as singlicates against the meprin α and meprin β target at a final concentration of 7.0 μM. Next, compounds selected as primary hits were cherry-picked and retested in triplicate against the primary screen target and its antitarget (meprin α for the meprin β screening effort, and vice versa) at a same final concentration of 7.0 μM. The additional counter screen assays against related metzincins (MMP-8, MMP-14, and ADAM10) were performed in triplicate at a final concentration of 7.0 μM. The final step was the titration of selected hits as 10-point, 1:3 serial dilutions in both the target and antitarget assay, starting at a final nominal concentration of 17 μM. […] Wells treated with DMSO only were used as negative controls and 0% inhibition reference. […] All data generated during this effort were uploaded to the SRMSC’s institutional screening database (Assay Explorer, Symyx). Sample to background (S/B) ratios, as well as Z and Z’ values, were calculated on a per plate basis as described 14. Curve fitting and resulting IC50 determinations were performed as previously reported.

[1] = triplicate, 10-point, 3:1 serial dilution, highest concentration 17.4 µM, read-out: Meprin β IC50

Compound: O=C(CSc1nnc(NC(=O)c2ccccc2)s1)NO [Compound 19847]
- IC50 (MMP10): > 17000 nM
- IC50 (MMP8): > 17000 nM
- IC50 (MMP14): > 17000 nM
- IC50 (meprin β; [1]): 1430 nM

Compound: O=C(CSc1nnc(NC(=O)COc2ccccc2)s1)NO [Compound 19848]
- IC50 (MMP10): > 17000 nM
- IC50 (MMP8): > 17000 nM
- IC50 (MMP14): > 17000 nM
- IC50 (meprin β; [1]): 385 nM

Compound: COc1cc(OC)cc(C(=O)CNc2nnc(SCC(=O)NO)s2)c1 [Compound 19849]
- IC50 (MMP10): > 17000 nM
- IC50 (MMP8): > 17000 nM
- IC50 (MMP14): > 17000 nM
- IC50 (meprin β; [1]): 287 nM

Compound: COc1ccc(-n2c(CSc3ncccn3)nnc2SCC(=O)NO)cc1 [Compound 19855]
- IC50 (MMP10): > 17000 nM
- IC50 (MMP8): > 17000 nM
- IC50 (MMP14): > 17000 nM
- IC50 (meprin β; [1]): > 17000 nM

Compound: O=C(CCN(Cc1cccs1)S(=O)(=O)c1ccc([N+](=O)[O-])cc1)NO [Compound 162799]
- IC50 (MMP10): > 17000 nM
- IC50 (MMP8): > 17000 nM
- IC50 (MMP14): > 17000 nM
- IC50 (meprin β; [1]): > 17000 nM

Compound: O=C(CCN(Cc1ccccc1)S(=O)(=O)c1ccc(F)cc1)NO [Compound 162808]
- IC50 (MMP10): > 17000 nM
- IC50 (MMP8): > 17000 nM
- IC50 (MMP14): > 17000 nM
- IC50 (meprin β; [1]): > 17000 nM

Compound: O=C(COc1ccc(Cl)cc1Cl)NO [Compound 1596857]
- IC50 (MMP10): > 17000 nM
- IC50 (MMP8): > 17000 nM
- IC50 (MMP14): > 17000 nM
- IC50 (meprin β): > 17000 nM

Compound: O=C(Nc1cc(C(=O)Nc2ccc(S(=O)(=O)O)cc2S(=O)(=O)O)cc(C(=O)Nc2ccc(S(=O)(=O)O)cc2S(=O)(=O)O)c1)Nc1cc(C(=O)Nc2ccc(S(=O)(=O)O)cc2S(=O)(=O)O)cc(C(=O)Nc2ccc(S(=O)(=O)O)cc2S(=O)(=O)O)c1 [NFF449]
- increased apparent potency (meprin β; 2.5 µM substrate condition): 3 fold
- IC50 (meprin β; 1536 wpf, 0.0125 nM enzyme, substrate 2.5uM, time 30 min, read-out: NF449 IC50): 10 nM
- IC50 (meprin β; 1536 wpf, 0.0125 nM enzyme, substrate 2.5uM, time 60 min, read-out: NF449 IC50): 11 nM
- IC50 (meprin β; 1536 wpf, 0.0125 nM enzyme, substrate 5uM, time 30 min, read-out: NF449 IC50): 17 nM
- IC50 (meprin β; 1536 wpf, 0.0125 nM enzyme, substrate 5uM, time 60 min, read-out: NF449 IC50): 20 nM
- IC50 (meprin β; 1536 wpf, 0.0125 nM enzyme, substrate 5uM, time 90 min, read-out: NF449 IC50): 22 nM
- IC50 (meprin β; 1536 wpf, 0.0125 nM enzyme, substrate 10uM, time 30 min, read-out: NF449 IC50): 34 nM
- IC50 (meprin β; 1536 wpf, 0.0125 nM enzyme, substrate 10uM, time 60 min, read-out: NF449 IC50): 32 nM
- IC50 (meprin β; 1536 wpf, 0.0125 nM enzyme, substrate 10uM, time 90 min, read-out: NF449 IC50): 34 nM
- IC50 (meprin β; 1536 wpf, enzyme 0.0125nM, time 30 min, read-out: NF449 IC50): 25.2 nM
- IC50 (meprin β; 1536 wpf, enzyme 0.0125nM, time 60 min, read-out: NF449 IC50): 30.4 nM
- IC50 (meprin β; 1536 wpf, enzyme 0.0125nM, time 90 min, read-out: NF449 IC50): 33.9 nM
- IC50 (meprin β; 1536 wpf, enzyme 0.025nM, time 30 min, read-out: NF449 IC50): 31 nM
- IC50 (meprin β; 1536 wpf, enzyme 0.025nM, time 60 min, read-out: NF449 IC50): 36.2 nM
- IC50 (meprin β; 1536 wpf, enzyme 0.025nM, time 90 min, read-out: NF449 IC50): 39.2 nM
- IC50 (meprin β; 1536 wpf, enzyme 0.05nM, time 30 min, read-out: NF449 IC50): 29.6 nM
- IC50 (meprin β; 1536 wpf, enzyme 0.05nM, time 60 min, read-out: NF449 IC50): 34.6 nM
- IC50 (meprin β; 1536 wpf, enzyme 0.05nM, time 90 min, read-out: NF449 IC50): 39.4 nM
- IC50 (meprin β; Meprin β 384 wpf, read-out: IC50): 53 nM
- IC50 (meprin β; Meprin β 1536 wpf, read-out: IC50): 48 nM
- IC50 (meprin β; control compound in primary HTS campaign, n = 11 plates, read-out: IC50): 10.4 ± 0.85 nM

Compound: O=[N+]([O-])c1ccc(CN2CCC3(CCc4ccccc43)CC2)o1 [SR207820]
- IC50 (MMP10): > 17000 nM
- IC50 (MMP8): > 17000 nM
- IC50 (MMP14): > 17000 nM
- IC50 (meprin β; [1]): 1500 nM

Compound: O=C(c1ccc(C(=O)O)c([N+](=O)[O-])c1)c1ccc(C(=O)O)c([N+](=O)[O-])c1 [SR355996]
- IC50 (MMP10): > 17000 nM
- IC50 (MMP8): > 17000 nM
- IC50 (MMP14): > 17000 nM
- IC50 (meprin β; [1]): 970 nM

Compound: CSc1nnc2c(n1)OC(c1ccc([N+](=O)[O-])o1)Nc1ccccc1-2 (stereo not shown) [SR412882]
- IC50 (MMP10): 9700 nM
- IC50 (MMP8): > 17000 nM
- IC50 (MMP14): 10500 nM
- IC50 (meprin β; [1]): 3500 nM
